Molecules are shown by their SMILES. Where two headings read alike, the source gives them in different places.

The test system of data set [1] is Human renal cortical epithelial cells. The data set can be described thus: Primary cell cytotoxicity, MTS assay. Type of data set: cell-based. The settings on record: 24 hrs or 72 hrs exposure, DAS181 various concentrations, 0.2% thimerosol, 1 mM CdCl2. An excerpt: (§1) Primary cryopreserved human renal cells (Proximal Tubule Epethelial and Cortical Epethelial cells) were thawed, plated, and propagated according to Cambrex’s recommended protocol. Both renal cell lines were thawed and plated at a seeding density of 2500 cells/cm^2 with Renal Epethelial Basal Medium (REBM) supplemented with Cambrex REGM SingleQuots® (Cambrex CC-4127); which includes recombinant human epidermal growth factor, insulin, GA-1000, 0.5% Fetal Bovine Serum, hydrocortisone, transferrin, epinephrine, and triiodothyronine (T3). The cells were allowed to adhere and equilibrate for 24 hours at 37°C with 5% CO2. […] All the renal cells were further subcultured and seeded into 10 tissue culture-coated 24 well plates per cell line at a seeding density of 2.5x10^3 cells/cm^2. Once the cells reached approximately 70% confluency the 24 well plates were used in cytotoxicity experiments using the REBM supplemented with the REGM SingleQuots®.
(§2) On Day 0 the cell media supernatants were initially collected for baseline controls, before adding fresh media supplemented with either PBS, DAS181 (indicated concentrations), or thimerosal (0.2%) or CdCl^2 (1mM) to serve as positive controls for cytotoxicity. All treatment groups were done in triplicate. Treatments were left on for either 24 hrs or 72 hrs. Subsequently, for the 24 hr exposure conditions fresh media without test article was added to all the wells every 24 hours on days 1-3 (24-72 hours post-treatment); a subset of the wells were used for MTS assay each day. For the 72 hr exposure conditions the media was only changed at 72 hrs, immediately prior to MTS assay. Renal cell media interfered with Lactate Dehydrogenase (LDH) and Alkaline Phosphatase (ALP) assays so these were not performed.
(§3) At each endpoint (24, 48, or 72 hrs) the old media was first replaced with fresh warm media (500uL/well) and the samples were then tested for cell viability using the CellTiter 96® Aqueous Non-Radioactive Cell Proliferation Assay (MTS) kit (Promega, Madison, WI). […] 100μL of each sample was then added to a 96 well plate and read for absorbance at 490 nm. A 1:5 dilution of MTS solution in growth media alone was used as the background. For data analysis, background values were subtracted from all sample values. Values were then normalized using the vehicle control as 100%. Each sample was compared to the vehicle control, via ANOVA with Bonferroni post-test, to determine if there was a statistically significant change in cell viability.
A general note: Formazan colour is commonly taken as a measure of viable cells.

Data set [2] concerns Human renal proximal tubule cells. The data set can be described thus: Primary cell cytotoxicity, MTS assay. It is filed as cell-based. As to conditions: 24 hrs or 72 hrs exposure, DAS181 various concentrations, 0.2% thimerosol, 1 mM CdCl2.
Excerpt: as §1, §2, §3

In data set [3] the test system is A/HongKong/2637/04. It is filed as cell-based, IFV A (H1N1).
The subject of data set [4] is A/HongKong/2765/04. Type of data set: cell-based, IFV A (H1N1).
The subject of data set [5] is A/NewJersey/15/07. Type of data set: cell-based, IFV A (H1N1).
Data set [6] concerns A/Hawaii/21/07. It is filed as cell-based, IFV A (H1N1).
For data set [7], the system named is A/St.Louis/539/09. Type of data set: cell-based, IFV A (H1N1).
The subject of data set [8] is A/St.Louis/746/09. Type of data set: cell-based, IFV A (H1N1).
The test system of data set [9] is A/St.Louis/775/09. Type of data set: cell-based, IFV A (H1N1).
In data set [10] the test system is A/St.Louis/758/09. Type of data set: cell-based, IFV A (H1N1).
In data set [11] the test system is A/St.Louis/630/09. It is filed as cell-based, IFV A (H1N1).
The subject of data set [12] is A/St.Louis/764/09. Type of data set: cell-based, IFV A (H1N1).
For data set [13], the system named is A/St.Louis/690/09. It is filed as cell-based, IFV A (H1N1).
Data set [14] relates to A/St.Louis/790/09. It is filed as cell-based, IFV A (H1N1).
The subject of data set [15] is A/St.Louis/792/09. It is filed as cell-based, IFV A (H1N1).
Data set [16] addresses NA enzymatic activity of A/Georgia/17/2006 WT (Influenza A virus (H1N1), UniProt A7UPL3). The data set can be described thus: Chemiluminescent neuraminidase activity inhibition (NI) assay. Type of data set: biochemical. As to conditions: for IC50: A/Georgia/17/2006 WT reference virus, mean of triplicate analysis; for R/S: A/Georgia/17/2006 WT, NI assay. The protocol: (§4) The chemiluminescent neuraminidase activity inhibition (NI) assay was conducted using a commercially available kit, NA-Star (Applied Biosystems, Foster City, CA) as previously described. Oseltamivir carboxylate and zanamivir were used at 10 half-log dilutions (0.03 to 1000 nM). Values shown represent mean of triplicate analysis.

Data set [17] deals with NA enzymatic activity of A/Hawaii/21/2007 (Influenza A virus (H1N1), UniProt B1AGI9). Described as above. Type of data set: biochemical, IFV A (H1N1). As to conditions: for R/S: A/Hawaii/21/2007, NI assay. The protocol: as §4
In data set [18] the target is NA enzymatic activity of A/St.Louis/539/09 (Influenza A virus, UniProt D0FH47). The data set is described as above. It is filed as biochemical, IFV A (H1N1). The settings on record: for R/S: NI assay; for IC50: mean of triplicate analysis. As for the experimental part:
as §4

Data set [19] has as its target NA enzymatic activity of A/St.Louis/630/09 (Influenza A virus, UniProt D0FH48). Described as above. Type of data set: biochemical, IFV A (H1N1). As to conditions: for R/S: NI assay; for IC50: mean of triplicate analysis. The protocol:
as §4

Data set [20] has as its target NA enzymatic activity of A/St.Louis/690/09 (Influenza A virus, UniProt D0FH49). The data set is described as above. It is filed as biochemical, IFV A (H1N1). As to conditions: for R/S: NI assay; for IC50: mean of triplicate analysis. The protocol:
as §4

Data set [21] concerns the target NA enzymatic activity of A/St.Louis/746/09 (Influenza A virus, UniProt D0FH50). The data set is described as above. The settings on record: for R/S: NI assay; for IC50: mean of triplicate analysis. Type of data set: biochemical, IFV A (H1N1). The protocol:
as §4

Data set [22] has as its target NA enzymatic activity of A/St.Louis/764/09 (Influenza A virus, UniProt D0FH52). The description is as above. It is filed as biochemical, IFV A (H1N1). As to conditions: for R/S: NI assay; for IC50: mean of triplicate analysis. The protocol:
as §4

The target in data set [23] is NA enzymatic activity of A/St.Louis/775/09 (Influenza A virus, UniProt D0FH53). Described as above. It is filed as biochemical, IFV A (H1N1). The settings on record: for R/S: NI assay; for IC50: mean of triplicate analysis. As for the experimental part: as §4
Data set [24] deals with NA enzymatic activity of A/St.Louis/790/09 (Influenza A virus, UniProt D0FH54). The description is as above. It is filed as biochemical, IFV A (H1N1). The settings on record: for R/S: NI assay; for IC50: mean of triplicate analysis. The protocol:
as §4

The target in data set [25] is NA enzymatic activity of A/St.Louis/792/09 (Influenza A virus, UniProt D0FH55). Described as above. It is filed as biochemical, IFV A (H1N1). The settings on record: for R/S: NI assay; for IC50: mean of triplicate analysis. The protocol: as §4

In the case of `[Cl][Cd][Cl]` [CdCl2, cadmium chloride], the “Cell viability (MTS) vs PBS” value in data set [1] and in [2] was “significant reduction in cell viability” throughout.
Take `C[CH2][Hg][S]c1ccccc1C(=O)[O-].[Na+]` [thimerosol]: the “Cell viability (MTS) vs PBS” value in data set [1] and in data set [2] was “significant reduction in cell viability” in each case.
In the case of `CCC(CC)O[C@@H]1C=C(C(=O)O)C[C@H](N)[C@H]1NC(C)=O` [oseltamivir, oseltamivir carboxylate], the concentration for a half-maximal effect (EC50) (as a rule, the concentration that produces a half-maximal response) is 3270 ± 1320 nM in [3] (read-out: EC50); 2920 ± 1000 nM in [4] (read-out: EC50); more than 400000 nM in data set [5] (read-out: EC50); more than 285000 nM in [6] (read-out: EC50); more than 400000 nM in data set [7] (read-out: EC50); more than 400000 nM in data set [8] (read-out: EC50). In addition, the concentration for a half-maximal effect (EC50) is more than 320000 nM in data set [9] (read-out: EC50); more than 400000 nM in data set [10] (read-out: EC50); more than 400000 nM in data set [11] (read-out: EC50); more than 400000 nM in [12] (read-out: EC50); more than 400000 nM in data set [13] (read-out: EC50); more than 304000 nM in data set [14] (read-out: EC50). The EC50 in data set [15] (read-out: EC50) was more than 400000 nM. In addition, the IC50 (commonly the concentration that inhibits the measured activity by half) turned out to be 0.37 nM in data set [16]; 110 nM in [17] (A/Hawaii/21/2007 reference virus, mean of triplicate analysis); 84.9 nM in data set [18]; 224 nM in [19]; 178 nM in [20]; 89.9 nM in data set [21]. The concentration for half-maximal inhibition (IC50) is 103 nM in data set [22], 91.8 nM in data set [23], 87.8 nM in data set [24] and 91.5 nM in [25]. Moreover, the R/S entry in data set [16] is “S”; in data set [17], “R”; in [18] it was “R”; in [19] it was “R”; in [20], “R”; in data set [21], “R”. The R/S result in [22], in data set [23], in [24] and in [25] was “R” throughout.
Consider `CC(=O)N[C@H]1[C@H]([C@H](O)[C@H](O)CO)OC(C(=O)O)=C[C@@H]1N=C(N)N` [zanamivir], for which the EC50 in [3] (read-out: EC50) was determined as 1820 ± 460 nM; in data set [3] (read-out: EC50 Zanamivir), 1820 ± 460 nM; in [4] (read-out: EC50), 4170 ± 530 nM; in data set [4] (read-out: EC50 Zanamivir), 4170 ± 530 nM; in data set [5] (read-out: EC50), 7020 ± 2460 nM; in data set [5] (read-out: EC50 Zanamivir) it was 7020 ± 2460 nM. In addition, the 50% effective concentration (EC50) is 45000 ± 22500 nM in data set [6] (read-out: EC50); 45000 ± 22500 nM in [6] (read-out: EC50 Zanamivir); more than 332000 nM in data set [7] (read-out: EC50); more than 332000 nM in [7] (read-out: EC50 Zanamivir); 1960 ± 420 nM in data set [8] (read-out: EC50); 1960 ± 420 nM in [8] (read-out: EC50 Zanamivir). In addition, the EC50 was 1200 ± 360 nM in data set [9] (read-out: EC50); 1200 ± 360 nM in data set [9] (read-out: EC50 Zanamivir); 7060 ± 2840 nM in data set [10] (read-out: EC50); 7060 ± 2840 nM in data set [10] (read-out: EC50 Zanamivir); 62100 ± 34800 nM in data set [11] (read-out: EC50); 62100 ± 34800 nM in [11] (read-out: EC50 Zanamivir). Also, the EC50 in data set [12] (read-out: EC50) is more than 273000 nM; in data set [12] (read-out: EC50 Zanamivir) it was more than 273000 nM; in data set [13] (read-out: EC50), more than 182000 nM; in data set [13] (read-out: EC50 Zanamivir) it was more than 182000 nM; in data set [14] (read-out: EC50), 3120 ± 1830 nM; in data set [14] (read-out: EC50 Zanamivir), 3120 ± 1830 nM. Also, the EC50 in data set [15] (read-out: EC50) and in data set [15] (read-out: EC50 Zanamivir) was more than 156000 nM in each case. For the same compound, the IC50 in data set [16] worked out at 0.44 nM; in data set [18], 0.28 nM; in [19] it was 0.48 nM; in data set [20], 0.44 nM; in data set [21], 0.3 nM; in data set [22], 0.3 nM. Also, the IC50 is 0.33 nM in [23], 0.29 nM in data set [24] and 0.28 nM in data set [25]. For the same compound, the R/S entry in data set [16], in [17], in [18], in data set [19], in [20] and in data set [21] was “S” each time. For the same compound, the R/S entry in data set [22], in data set [23], in [24] and in data set [25] was “S” in each case.

These data come from PMC2770896, “Inhibition of Neuraminidase Inhibitor-Resistant Influenza Virus by DAS181, a Novel Sialidase Fusion Protein” (PLoS ONE, 2009).
